According to patent US20260250320A1, “LIPIDATED PEPTIDE INHIBITORS OF INTERLEUKIN-23 RECEPTOR” (Janssen Pharmaceutica NV, priority 2023, published 2026):
*1 amine or outer side, *2 acyl side, *3 side chain or, on linkers, in order; H or OH if unused. Where a SMILES comes first, the peptide text is derived from it. Bridges are numbered along the chain shown (N, C = ends). Side-chain parts run from the residue outwards. [ ]: non-standard residue; d: D form. The star is where a group is joined. PEG12 = NCCOCCOCCOCCOCCOCCOCCOCCOCCOCCOCCOCCOCCC(=O)O; Trp(7-Me,2,3-dihydro) = Cc1cccc2c1NCC2C[C@H](N)C(=O)O; CH2CH2OCH2CH2OCH2CH2NMe3+ = C[N+](C)(C)CCOCCOCC*; Trp(7-Me) = Cc1cccc2c(C[C@H](N)C(=O)O)c[nH]c12; C20 diacid = O=C(O)CCCCCCCCCCCCCCCCCCC(=O)*; C18 diacid = O=C(O)CCCCCCCCCCCCCCCCC(=O)*; X40 = C=C(/C=N\C)C[C@H](N[*:1])C(=O)[*:2]; γGlu = O=C(O)[C@H](CCC(=O)[*:2])N[*:1]; 2Nal = N[C@@H](Cc1ccc2ccccc2c1)C(=O)O; AEF = NCCOc1ccc(C[C@H](N)C(=O)O)cc1; X26 = C[N+](C)(CCN[*:1])CC(=O)[*:2]; X2 = C[N+](C)(C)C[C@@H](CC(=O)O)N*; 3Pal = N[C@@H](Cc1cccnc1)C(=O)O; Lys(Me) = CNCCCC[C@H](N)C(=O)O; NMeK = CN[C@@H](CCCCN)C(=O)O; Pen = CC(C)(S)[C@H](N)C(=O)O; Suc = O=C(CCC(=O)[*:2])[*:1]; Thp = NC1(C(=O)O)CCOCC1; AEEA = NCCOCCOCC(=O)O; Sar = CNCC(=O)O

Columns and labels:
[1] = test system: IL-23-stimulated phosphorylated STAT3 in peripheral blood mononuclear cells (PBMCs); test: PBMC pSTAT3 Assay; type: cell-based; settings: PBMCs from healthy donors; 30 min preincubation with peptide; IL-23 5 ng/mL for 30 min; phospho-STAT3 by MSD
Outline: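 Phospho-STAT3 quantified by Meso Scale assay in lysates of PBMCs exposed to IL-23 (5 ng/mL, 30 min, 37 °C) after 30 min peptide pretreatment. Cells were cryopreserved donor PBMCs activated 4 days with anti-CD3 plus IL-1β (100 ng/mL) and starved ~4 h; IC50 reported.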

IL-23R = target: T1, IL-23R (Homo sapiens, UniProt Q5VWK5); test: IL23R Reporter Assay; type: cell-based; settings: HEK293 cells containing IL-23R, IL-12Rβ1 and STAT-inducible firefly luciferase reporter; 10 ng/mL IL-23 (EC90); 5 h
T1 construct: HEK293 cells containing IL-23R, IL-12Rβ1 and a firefly luciferase reporter gene driven by a STAT-inducible promoter (Promega); host or cells: HEK293
T1 sequence (Q5VWK5 24-629): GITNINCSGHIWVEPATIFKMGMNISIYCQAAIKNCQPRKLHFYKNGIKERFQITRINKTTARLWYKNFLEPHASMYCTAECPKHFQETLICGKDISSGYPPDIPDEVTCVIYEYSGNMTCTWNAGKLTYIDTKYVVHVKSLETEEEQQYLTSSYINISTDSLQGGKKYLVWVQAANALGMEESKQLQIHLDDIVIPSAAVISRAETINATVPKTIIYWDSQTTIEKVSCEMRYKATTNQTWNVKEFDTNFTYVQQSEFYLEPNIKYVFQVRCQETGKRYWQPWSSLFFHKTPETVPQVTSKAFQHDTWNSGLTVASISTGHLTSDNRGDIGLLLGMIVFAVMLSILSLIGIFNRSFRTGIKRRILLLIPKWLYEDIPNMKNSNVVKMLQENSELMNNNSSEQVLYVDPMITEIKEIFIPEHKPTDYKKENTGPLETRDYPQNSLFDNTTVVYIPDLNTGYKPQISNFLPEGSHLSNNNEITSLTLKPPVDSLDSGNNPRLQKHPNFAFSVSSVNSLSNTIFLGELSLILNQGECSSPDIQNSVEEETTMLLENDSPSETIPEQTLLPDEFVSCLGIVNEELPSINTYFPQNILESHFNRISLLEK
Outline: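 IC50 values were fitted with a 4-parameter Hill equation to luciferase signal, scaled between IL-23-only wells (0% inhibition) and 30 μM reference inhibitor (100%). The readout was a STAT-inducible reporter in IL-23R/IL-12Rβ1 HEK293 cells, stimulated with added 10 ng/mL IL-23 (EC90) for 5 h at 37° C and developed with BioGlo.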

Row | Compound | IC50 [1] | IC50 (IL-23R)
1 | CC(=O)NCCCC[C@@H]1NC(=O)[C@H](CC2CNc3c(C)cccc32)NC(=O)[C@H]([C@@H](C)O)NC(=O)[C@H](CC(N)=O)NC(=O)[C@@H](NC(=O)[C@@H](CCCNC(=N)N)NC(C)=O)C(C)(C)SSC(C)(C)[C@@H](C(=O)N[C@@H](Cc2ccc(OCCN)cc2)C(=O)N[C@@H](Cc2ccc3ccccc3c2)C(=O)NCC(=O)N[C@@H](CCCCNC(=O)CCOCCOCCOCCOCCOCCOCCOCCOCCOCCOCCOCCOCCNC(=O)CC[C@H](NC(=O)CCCCCCCCCCCCCCCCC(=O)O)C(=O)O)C(=O)N[C@@H](CC(N)=O)C(=O)N[C@@H](Cc2cccnc2)C(=O)N(C)CC(N)=O)NC1=O (stereo partly drawn) [compound 146, MeCO-r-Pen(3)-N-T-7MeW-K(Ac)-Pen(3)-AEF-2Nal-THP-K(PEG12gEC18OH)-N-3Pya-Sar-CONH2] (Ac-[dR][Pen]NT[Trp(7-Me,2,3-dihydro)]K(Ac)[Pen][AEF][2Nal]GK([PEG12-γGlu-C18 diacid])N[3Pal][Sar]-NH2; disulfide 2-7) | < 0.5 nM | 50 to 500 nM
2 | C=C(/C=N\C)C[C@H](NC(=O)[C@H](CC(N)=O)NC(=O)[C@H](CCC(=O)O)NC(=O)C1(NC(=O)[C@H](Cc2ccc3ccccc3c2)NC(=O)[C@H](Cc2ccc(OCCN)cc2)NC(=O)[C@H]2NC(=O)[C@H](CCCCNC(C)=O)NC(=O)[C@H](Cc3c[nH]c4c(C)cccc34)NC(=O)[C@H]([C@@H](C)O)NC(=O)[C@H](CC(N)=O)NC(=O)[C@@H](NC(=O)[C@@H](CCCCNC(=O)CCOCCOCCOCCOCCOCCOCCOCCOCCOCCOCCOCCOCCNC(=O)CC[C@H](NC(=O)CCCCCCCCCCCCCCCCCCC(=O)O)C(=O)O)NC(C)=O)C(C)(C)SSC2(C)C)CCOCC1)C(=O)N(C)CC(N)=O [compound 26, MeCO-k(PEG12gEC20OH)-Pen(3)-N-T-7MeW-K(Ac)-Pen(3)-AEF-2Nal-THP-E-N-3Pya-Sar-CONH2] (Ac-[dK]([PEG12-γGlu-C20 diacid])[Pen]NT[Trp(7-Me)]K(Ac)[Pen][AEF][2Nal][Thp]EN[X40][Sar]-NH2; disulfide 2-7) | < 0.5 nM | < 50 nM
3 | CC(=O)N(C)CCCC[C@@H]1NC(=O)[C@H](Cc2c[nH]c3c(C)cccc23)NC(=O)[C@H]([C@@H](C)O)NC(=O)[C@H](CC(=O)N(C)C)NC(=O)[C@@H](NC(=O)COCCOCCNC(=O)C[N+](C)(C)CCNC(=O)COCCOCCNC(=O)CC[C@H](NC(=O)CCCCCCCCCCCCCCCCC(=O)O)C(=O)O)C(C)(C)SSC(C)(C)[C@@H](C(=O)N[C@@H](Cc2ccc(OCCOCCOCC[N+](C)(C)C)cc2)C(=O)N[C@@H](Cc2ccc3ccccc3c2)C(=O)NC2(C(=O)N[C@@H](CCCCN(C)C(C)=O)C(=O)N[C@@H](CC(N)=O)C(=O)N[C@@H](Cc3cccnc3)C(=O)N(C)CC(=O)N(C)C)CCOCC2)NC1=O [compound 89, HOC18gEPEG2SP6PEG2CO-Pen(3)-N(N(Me)2)-T-7MeW-K(NMeAc)-Pen(3)-APEG3F-2Nal-THP-K(NMeAc)-N-3Pya-Sar-CON(Me)2] ({C18 diacid-γGlu-AEEA}-[X26][AEEA][Pen]D(NMe2)T[Trp(7-Me)][Lys(Me)](Ac)[Pen]Y(CH2CH2OCH2CH2OCH2CH2NMe3+)[2Nal][Thp][Lys(Me)](Ac)N[3Pal][Sar]-NMe2; disulfide 3-8) | < 0.5 nM | < 50 nM
4 | CC(=O)NCCCC[C@@H]1NC(=O)[C@H](Cc2c[nH]c3c(C)cccc23)NC(=O)[C@H]([C@@H](C)O)NC(=O)[C@H](CC(N)=O)NC(=O)[C@@H](NC(=O)[C@@H](CCCNC(=N)N)NC(C)=O)C(C)(C)SSC(C)(C)[C@@H](C(=O)N[C@@H](Cc2ccc(OCCN)cc2)C(=O)N[C@@H](Cc2ccc3ccccc3c2)C(=O)NC2(C(=O)N[C@@H](CCCCNC(=O)COCCOCCNC(=O)COCCOCCNC(=O)CC[C@H](NC(=O)CCCCCCCCCCCCCCCCC(=O)O)C(=O)O)C(=O)N[C@@H](CC(N)=O)C(=O)N[C@@H](Cc3cccnc3)C(=O)N(C)[C@@H](CCCCNC(=O)CCC(=O)N[C@H](CC(=O)O)C[N+](C)(C)C)C(N)=O)CCOCC2)NC1=O [compound 21, MeCO-r-Pen(3)-N-T-7MeW-K(Ac)-Pen(3)-AEF-2Nal-THP-K(PEG2PEG2gEC18OH)-N-3Pya-NMeK(d)-CONH2] (Ac-[dR][Pen]NT[Trp(7-Me)]K(Ac)[Pen][AEF][2Nal][Thp]K([AEEA-AEEA-γGlu-C18 diacid])N[3Pal][NMeK]([Suc-X2])-NH2; disulfide 2-7) | < 0.5 nM | < 50 nM
